# Peptide text beside a SMILES is read from it.
# Target: T1, Tyrosinase (Homo sapiens) (UniProt P14679)
# T1 sequence (whole entry): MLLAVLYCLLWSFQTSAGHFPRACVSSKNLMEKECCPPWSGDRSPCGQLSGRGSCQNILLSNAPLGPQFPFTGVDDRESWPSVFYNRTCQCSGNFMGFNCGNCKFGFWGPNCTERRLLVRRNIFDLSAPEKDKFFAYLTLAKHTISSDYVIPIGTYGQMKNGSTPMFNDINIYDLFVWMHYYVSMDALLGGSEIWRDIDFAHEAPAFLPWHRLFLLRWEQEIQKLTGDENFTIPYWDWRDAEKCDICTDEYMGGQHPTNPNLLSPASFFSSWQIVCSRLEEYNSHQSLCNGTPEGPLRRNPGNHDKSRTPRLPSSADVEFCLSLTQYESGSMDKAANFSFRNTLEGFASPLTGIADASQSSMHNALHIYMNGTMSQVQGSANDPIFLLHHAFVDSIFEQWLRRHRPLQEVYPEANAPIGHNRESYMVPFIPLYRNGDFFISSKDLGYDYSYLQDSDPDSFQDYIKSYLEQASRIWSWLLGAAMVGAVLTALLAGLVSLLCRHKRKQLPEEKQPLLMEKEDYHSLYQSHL
# Experiment: Inhibition of tyrosinase at 800 uM by dopachrome method
smiles,measurement,value
CC(C)C[C@@H]1NC(=O)[C@@H]2CCCN2C(=O)[C@H]([C@@H](C)O)NC(=O)[C@@H]2CCCN2C(=O)[C@H]([C@@H](C)O)NC(=O)CNC(=O)[C@H](Cc2ccccc2)NC(=O)[C@H](Cc2ccccc2)NC1=O (cyclo(FFGTPTPL)),inhibition,15%

# From ChEMBL document CHEMBL1159263, “Cyclic peptides from higher plants, Part 15. Pseudostellarin H, a new cyclic octapeptide from Pseudostellaria heterophylla” (J Nat Prod, 1995)
